Reference: the NIST ThermoML archive (doi:10.1016/j.jct.2013.02.022)
± gives the expanded uncertainty stated by the source.

Assays:
[1] = xn = mol fraction of the nth substance listed; settings: 101 kPa, Liquid, Vibrating tube method
[2] = refractive index (Na D-line) (dimensionless); xn = mol fraction of the nth substance listed; settings: 303.15 K, 101 kPa, Liquid, Standard Abbe refractometry

CCCC(=O)[O-].C[NH2+]CCO [N-methyl-2-hydroxyethylammonium butanoate] + CCOC(C)=O
[1]
Settings	mass density [kg/m3]
303.15 K, x2 = 0	1035.87 ± 1.3
303.15 K, x2 = 0.199	1013.58 ± 1.1
303.15 K, x2 = 0.2901	1004.61 ± 1.1
303.15 K, x2 = 0.507	981.19 ± 1
303.15 K, x2 = 0.7039	950.35 ± 1
303.15 K, x2 = 0.8031	931.53 ± 1
303.15 K, x2 = 0.8998	911.57 ± 1.1
303.16 K, x2 = 0.0454	1026.24 ± 1.3
303.16 K, x2 = 0.0956	1022.32 ± 1.2
303.16 K, x2 = 0.412	992.58 ± 1.1
303.16 K, x2 = 0.6018	967.06 ± 1
303.16 K, x2 = 0.9497	900.62 ± 1.1
308.15 K, x2 = 0	1032.53 ± 1.3
308.15 K, x2 = 0.0956	1018.71 ± 1.2
308.15 K, x2 = 0.199	1009.85 ± 1.1
308.15 K, x2 = 0.2901	1000.57 ± 1.1
308.15 K, x2 = 0.412	987.98 ± 1.1
308.15 K, x2 = 0.507	976.57 ± 1
308.15 K, x2 = 0.6018	962.31 ± 1
308.15 K, x2 = 0.7039	945.26 ± 1
308.15 K, x2 = 0.8031	926.08 ± 1
308.15 K, x2 = 0.8998	905.73 ± 1.1
308.16 K, x2 = 0.0454	1022.67 ± 1.3
308.16 K, x2 = 0.9497	894.58 ± 1.1
313.15 K, x2 = 0.0454	1019.09 ± 1.3
313.15 K, x2 = 0.0956	1015.1 ± 1.2
313.15 K, x2 = 0.6018	957.53 ± 1
313.16 K, x2 = 0	1029.14 ± 1.3
313.16 K, x2 = 0.199	1006.08 ± 1.1
313.16 K, x2 = 0.2901	996.56 ± 1.1
313.16 K, x2 = 0.412	983.25 ± 1.1
313.16 K, x2 = 0.507	971.82 ± 1
313.16 K, x2 = 0.7039	940.11 ± 1
313.16 K, x2 = 0.8031	920.58 ± 1.1
313.16 K, x2 = 0.8998	899.84 ± 1.1
313.16 K, x2 = 0.9497	888.5 ± 1.1
318.15 K, x2 = 0.9497	882.16 ± 1.1
318.16 K, x2 = 0	1025.72 ± 1.3
318.16 K, x2 = 0.0454	1015.66 ± 1.2
318.16 K, x2 = 0.0956	1011.66 ± 1.2
318.16 K, x2 = 0.199	1002.32 ± 1.1
318.16 K, x2 = 0.2901	992.61 ± 1.1
318.16 K, x2 = 0.412	978.49 ± 1.1
318.16 K, x2 = 0.507	967.05 ± 1
318.16 K, x2 = 0.6018	952.68 ± 1
318.16 K, x2 = 0.7039	934.92 ± 1
318.16 K, x2 = 0.8031	915.03 ± 1.1
318.16 K, x2 = 0.8998	893.91 ± 1.1
323.14 K, x2 = 0.0454	1012.2 ± 1.2
323.14 K, x2 = 0.0956	1007.98 ± 1.2
323.14 K, x2 = 0.199	998.56 ± 1.1
323.14 K, x2 = 0.2901	988.83 ± 1.1
323.14 K, x2 = 0.412	974.67 ± 1.1
323.14 K, x2 = 0.507	962.75 ± 1
323.14 K, x2 = 0.7039	929.55 ± 1
323.14 K, x2 = 0.8031	909.33 ± 1.1
323.14 K, x2 = 0.8998	887.92 ± 1.1
323.15 K, x2 = 0.6018	947.5 ± 1
323.15 K, x2 = 0.9497	876.1 ± 1.1
323.16 K, x2 = 0	1022.26 ± 1.3

[2]
Settings	refractive index
x2 = 0	1.4534 ± 0.0009
x2 = 0.0454	1.4533 ± 0.0009
x2 = 0.0956	1.4511 ± 0.0009
x2 = 0.199	1.4472 ± 0.0008
x2 = 0.2901	1.4411 ± 0.0008
x2 = 0.412	1.4324 ± 0.0008
x2 = 0.507	1.4246 ± 0.0008
x2 = 0.6018	1.4161 ± 0.0008
x2 = 0.7039	1.4055 ± 0.0008
x2 = 0.8031	1.3949 ± 0.0008
x2 = 0.8998	1.3812 ± 0.0008
x2 = 0.9497	1.3746 ± 0.0008
